Paper PMC11859928, “Design, Synthesis, and Antiproliferative Activity of Novel Indole/1,2,4-Triazole Hybrids as Tubulin Polymerization Inhibitors” (Pharmaceuticals, 2025)
Like-named read-outs stand apart in the source and are kept apart here.

Legend:
[1] = test system: U251; assay: NCI five-dose assay; type: cell-based, human; details: U251, CNS cancer; for CC50 / GI50: Homo sapiens, U-251; for CC50: 48 h, read-out: LC50 (the source's name); for GI50: read-out: GI50 Conc. per Cell Lines
[2] = test system: HCC-2998; assay: NCI five-dose assay; type: cell-based, human; details: HCC-2998, Colon cancer; for CC50 / GI50: Homo sapiens; for CC50: 48 h, read-out: LC50 (the source's name); for GI50: read-out: GI50 Conc. per Cell Lines
[3] = test system: K-562; assay: NCI five-dose assay; type: cell-based, human; details: K-562, Leukemia; for CC50 / GI50: Homo sapiens, K562; for CC50: 48 h, read-out: LC50 (the source's name); for GI50: read-out: GI50 Conc. per Cell Lines
[4] = test system: panel of 60 human tumor cell lines; assay: NCI five-dose assay, full panel; type: cell-based
[5] = test system: NCI/ADR-RES; assay: NCI five-dose assay; type: cell-based, human; details: Ovarian cancer; for LC50 / GI50: Homo sapiens; for LC50: 48 h; for GI50: read-out: GI50 Conc. per Cell Lines
[6] = test system: 786-0; assay: NCI five-dose assay; type: cell-based, human; details: 786-0, Renal cancer; for LC50 (50% lethal concentration) / GI50: Homo sapiens; for LC50 (50% lethal concentration): 48 h; for GI50: read-out: GI50 Conc. per Cell Lines
[7] = test system: PC-3; assay: NCI five-dose assay; type: cell-based, human; details: PC-3, Prostate cancer; for CC50 / GI50: Homo sapiens; for CC50: 48 h, read-out: LC50 (the source's name); for GI50: read-out: GI50 Conc. per Cell Lines
[8] = test system: SN12C; assay: NCI five-dose assay; type: cell-based, human; details: Renal cancer; for CC50 / GI50: Homo sapiens; for CC50: 48 h, read-out: LC50 (the source's name); for GI50: read-out: GI50 Conc. per Cell Lines
[9] = test system: MDA-MB-435; assay: NCI five-dose assay; type: cell-based, human; details: MDA-MB-435, Melanoma; for CC50 / GI50: Homo sapiens; for CC50: 48 h, read-out: LC50 (the source's name); for GI50: read-out: GI50 Conc. per Cell Lines
[10] = test system: MDA/MB-231-ATCC; assay: NCI five-dose assay; type: cell-based, human; details: Breast cancer; for LC50 / GI50: Homo sapiens; for LC50: 48 h; for GI50: read-out: GI50 Conc. per Cell Lines
[11] = test system: ACHN; assay: NCI five-dose assay; type: cell-based, human; details: Renal cancer; for LC50 / GI50: Homo sapiens; for LC50: 48 h; for GI50: read-out: GI50 Conc. per Cell Lines
[12] = test system: Prostate cancer subpanel; assay: NCI five-dose assay, subpanel mean; type: cell-based, human; details: for GI50: Homo sapiens, average sensitivity of all cell lines of the Prostate cancer subpanel, read-out: GI50 Subpanel MID b; for GI50 Selectivity Ratio (MID a/MID b): Prostate cancer subpanel
[13] = test system: SK-OV-3; assay: NCI five-dose assay; type: cell-based, human; details: SK-OV-3, Ovarian cancer; for CC50 / GI50: Homo sapiens; for CC50: 48 h, read-out: LC50 (the source's name); for GI50: read-out: GI50 Conc. per Cell Lines
[14] = test system: OVCAR-8; assay: NCI five-dose assay; type: cell-based, human; details: OVCAR-8, Ovarian cancer; for CC50 / GI50: Homo sapiens; for CC50: 48 h, read-out: LC50 (the source's name); for GI50: read-out: GI50 Conc. per Cell Lines
[15] = test system: CAKI-1; assay: NCI five-dose assay; type: cell-based, human; details: CAKI-1, Renal cancer; for LC50 / GI50: Homo sapiens; for LC50: 48 h; for GI50: read-out: GI50 Conc. per Cell Lines
[16] = test system: SF-539; assay: NCI five-dose assay; type: cell-based, human; details: SF-539, CNS cancer; for CC50 / GI50: Homo sapiens; for CC50: 48 h, read-out: LC50 (the source's name); for GI50: read-out: GI50 Conc. per Cell Lines
[17] = test system: SF-268; assay: NCI five-dose assay; type: cell-based, human; details: SF-268, CNS cancer; for CC50 / GI50: Homo sapiens; for CC50: 48 h, read-out: LC50 (the source's name); for GI50: read-out: GI50 Conc. per Cell Lines
[18] = test system: EKVX; assay: NCI five-dose assay; type: cell-based, human; details: Non-small cell lung cancer; for CC50 / GI50: Homo sapiens; for CC50: 48 h, read-out: LC50 (the source's name); for GI50: read-out: GI50 Conc. per Cell Lines
[19] = test system: DU-145; assay: NCI five-dose assay; type: cell-based, human; details: DU-145, Prostate cancer; for GI50: read-out: GI50 Conc. per Cell Lines
[20] = test system: NCI-H23; assay: NCI five-dose assay; type: cell-based, human; details: NCI-H23, Non-small cell lung cancer; for CC50 / GI50: Homo sapiens; for CC50: 48 h, read-out: LC50 (the source's name); for GI50: read-out: GI50 Conc. per Cell Lines
[21] = test system: SW-620; assay: NCI five-dose assay; type: cell-based, human; details: SW-620, Colon cancer; for CC50 / GI50: Homo sapiens; for CC50: 48 h, read-out: LC50 (the source's name); for GI50: read-out: GI50 Conc. per Cell Lines
[22] = test system: MOLT-4; assay: NCI five-dose assay; type: cell-based, human; details: MOLT-4, Leukemia; for CC50 / GI50: Homo sapiens; for CC50: 48 h, read-out: LC50 (the source's name); for GI50: read-out: GI50 Conc. per Cell Lines
[23] = test system: OVCAR-3; assay: NCI five-dose assay; type: cell-based, human; details: OVCAR-3, Ovarian cancer; for LC50 / GI50: Homo sapiens; for LC50: 48 h; for GI50: read-out: GI50 Conc. per Cell Lines
[24] = test system: UACC-257; assay: NCI five-dose assay; type: cell-based, human; details: UACC-257, Melanoma; for CC50 / GI50: Homo sapiens; for CC50: 48 h, read-out: LC50 (the source's name); for GI50: read-out: GI50 Conc. per Cell Lines
[25] = test system: NCI-H226; assay: NCI five-dose assay; type: cell-based, human; details: NCI-H226, Non-small cell lung cancer; for CC50 / GI50: Homo sapiens; for CC50: 48 h, read-out: LC50 (the source's name); for GI50: read-out: GI50 Conc. per Cell Lines
[26] = test system: MALME-3M; assay: NCI five-dose assay; type: cell-based, human; details: Melanoma; for GI50: read-out: GI50 Conc. per Cell Lines
[27] = average sensitivity of all cell lines, read-out: GI50 MID a
[28] = most of the tested cell lines across nine subpanels, read-out: GI50 values, range across nine subpanels
[29] = Homo sapiens, 48 h, read-out: LC50 (the source's name)

## Cc1ccc(C(=O)CSc2nnc(-c3c[nH]c4ccccc34)n2-c2ccccc2)cc1 [Compound 6h, 2-((5-(1H-Indol-3-yl)-4-phenyl-4H-1,2,4-triazol-3-yl)thio)-1-(p-tolyl)ethenone]
[1]
  CC50: > 100 µM
  GI50: 23.6 µM
  TGI Conc. per Cell Lines: 65.60 µM
[2]
  TGI Conc. per Cell Lines: 51.70 µM
  CC50: > 100 µM
  GI50: 20 µM
[3]
  CC50: > 100 µM
  GI50: 22.1 µM
  TGI Conc. per Cell Lines: ˃100 µM
[4]; [27]
  GI50: 19.3 µM
[4]; [28]
  GI50: 8.42 to 33.5 µM
[5]
  LC50: 76.8 µM
  GI50: 11.9 µM
  TGI Conc. per Cell Lines: 30.20 µM
[6]
  TGI Conc. per Cell Lines: 31.20 µM
  LC50 (50% lethal concentration): 66.4 µM
  GI50: 14.7 µM
[7]
  CC50: > 100 µM
  GI50: 12.4 µM
  TGI Conc. per Cell Lines: 37.80 µM
[8]
  CC50: > 100 µM
  GI50: 19.4 µM
  TGI Conc. per Cell Lines: 48.90 µM
[9]
  CC50: > 100 µM
  GI50: 22.8 µM
  TGI Conc. per Cell Lines: 65.40 µM
[10]
  TGI Conc. per Cell Lines: 32.60 µM
  LC50: 69 µM
  GI50: 15.4 µM
[11]
  LC50: 62.3 µM
  GI50: 13.7 µM
  TGI Conc. per Cell Lines: 29.20 µM
[12]
  GI50: 8.42 µM
  GI50 Selectivity Ratio (MID a/MID b): 2.29
[13]
  CC50: 64.4 µM
  GI50: 17 µM
  TGI Conc. per Cell Lines: 33.10 µM
[14]
  CC50: > 100 µM
  GI50: 24.5 µM
  TGI Conc. per Cell Lines: ˃100 µM
[15]
  TGI Conc. per Cell Lines: 29.80 µM
  LC50: 59.4 µM
  GI50: 14.9 µM
[16]
  CC50: 54.2 µM
  GI50: 15 µM
  TGI Conc. per Cell Lines: 28.50 µM
[17]
  CC50: > 100 µM
  GI50: 24.2 µM
  TGI Conc. per Cell Lines: 78.90 µM
[18]
  CC50: > 100 µM
  GI50: 19 µM
  TGI Conc. per Cell Lines: 98.90 µM
[19]
  TGI Conc. per Cell Lines: >100 µM
[19]; [29]
  CC50: > 100 µM
[19]; Homo sapiens
  GI50: 4.43 µM
[20]
  CC50: 54.9 µM
  GI50: 13.7 µM
  TGI Conc. per Cell Lines: 27.50 µM
[21]
  CC50: > 100 µM
  GI50: 30.3 µM
  TGI Conc. per Cell Lines: >100 µM
[22]
  CC50: > 100 µM
  GI50: 21.8 µM
  TGI Conc. per Cell Lines: ˃100 µM
[23]
  LC50: > 100 µM
  GI50: 18 µM
  TGI Conc. per Cell Lines: 43.20 µM
[24]
  CC50: > 100 µM
  GI50: 28.9 µM
  TGI Conc. per Cell Lines: >100 µM
[25]
  CC50: 69.8 µM
  GI50: 9.22 µM
  TGI Conc. per Cell Lines: 26.10 µM
[26]; Homo sapiens
  GI50: 16.2 µM
[26]
  TGI Conc. per Cell Lines: 36.20 µM

## O/N=C(\CSc1nnc(-c2c[nH]c3ccccc23)n1-c1ccccc1)c1ccc(Br)cc1 [Compound 7i, (Z)-2-((5-(1H-Indol-3-yl)-4-phenyl-4H-1,2,4-triazol-3-yl)thio)-1-(4-bromophenyl) Ethanone Oxime]
[1]
  CC50: 51.2 µM
  GI50: 4.38 µM
[2]
  TGI Conc. per Cell Lines: 12.30 µM
  CC50: 35.8 µM
  GI50: 3.36 µM
[3]
  CC50: > 100 µM
  GI50: 2.22 µM
[4]; [27]
  GI50: 2.8 µM
[4]; [28]
  GI50: 2.1 to 3.23 µM
[5]
  LC50: 8.08 µM
  GI50: 1.9 µM
  TGI Conc. per Cell Lines: 3.92 µM
[6]
  TGI Conc. per Cell Lines: 27.00 µM
  LC50 (50% lethal concentration): 93.4 µM
  GI50: 6.85 µM
[7]
  CC50: > 100 µM
  GI50: 2.15 µM
  TGI Conc. per Cell Lines: 4.96 µM
[8]
  CC50: 30.1 µM
  GI50: 2.52 µM
  TGI Conc. per Cell Lines: 7.97 µM
[9]
  CC50: 7.57 µM
  GI50: 2.01 µM
  TGI Conc. per Cell Lines: 3.89 µM
[10]
  TGI Conc. per Cell Lines: 3.26 µM
  LC50: 6.21 µM
  GI50: 1.71 µM
[11]
  LC50: 24.9 µM
  GI50: 2.53 µM
  TGI Conc. per Cell Lines: 7.05 µM
[12]
  GI50: 2.1 µM
  GI50 Selectivity Ratio (MID a/MID b): 1.33
[13]
  CC50: 27.4 µM
  GI50: 2.53 µM
  TGI Conc. per Cell Lines: 6.03 µM
[14]
  CC50: > 100 µM
  GI50: 2.45 µM
  TGI Conc. per Cell Lines: 6.50 µM
[15]
  TGI Conc. per Cell Lines: 8.10 µM
  LC50: 38 µM
  GI50: 2.63 µM
[16]
  CC50: 38.4 µM
  GI50: 4.04 µM
  TGI Conc. per Cell Lines: 14.20 µM
[17]
  CC50: > 100 µM
  GI50: 2.37 µM
[18]
  CC50: 34.2 µM
  GI50: 2.6 µM
  TGI Conc. per Cell Lines: 9.09 µM
[19]
  TGI Conc. per Cell Lines: 4.08 µM
[19]; Homo sapiens
  GI50: 2.05 µM
[20]
  CC50: 84.3 µM
  GI50: 4.31 µM
  TGI Conc. per Cell Lines: 19.60 µM
[21]
  CC50: 62.1 µM
  GI50: 3.28 µM
  TGI Conc. per Cell Lines: 12.10 µM
[22]
  CC50: > 100 µM
  GI50: 2.09 µM
  TGI Conc. per Cell Lines: 4.80 µM
[23]
  LC50: > 100 µM
  GI50: 4.98 µM
  TGI Conc. per Cell Lines: 23.8 µM
[24]
  CC50: 72.6 µM
  GI50: 3.87 µM
  TGI Conc. per Cell Lines: 17.50 µM
[25]
  CC50: 51.4 µM
  GI50: 3.33 µM
  TGI Conc. per Cell Lines: 14.90 µM
[26]; [29]
  CC50: 87 µM
[26]; Homo sapiens
  GI50: 3.22 µM
[26]
  TGI Conc. per Cell Lines: 14.30 µM
